Type in all cases: functional
Assay [1] deals with Spodoptera frugiperda. The assay is described as follows: Antifeedant activity against second-instar larvae of Spodoptera frugiperda (fall armyworm) in cotton glandless leaves assessed as 50% protection of host plant substrate after 48 hr.
For assay [2], the system named is Pectinophora gossypiella. Nature of the assay: Antifeedant activity against second-instar larvae of Pectinophora gossypiella (pink bollworm) in cotton glandless leaves assessed as 50% protection of host plant substrate after 48 hr.
Assay [3] concerns Pectinophora gossypiella. Nature of the assay: Antifeedant activity against second-instar larvae of Pectinophora gossypiella (pink bollworm) in cotton glandless leaves assessed as 95% protection of host plant substrate after 48 hr.
Assay [4] concerns Spodoptera frugiperda. Nature of the assay: Antifeedant activity against second-instar larvae of Spodoptera frugiperda (fall armyworm) in cotton glandless leaves assessed as 95% protection of host plant substrate after 48 hr.

Molecules are shown by their SMILES.

As for `CC(=O)O[C@@H]1[C@@H]2[C@@]34CC(=O)C[C@@H]3OC(C)(C)[C@@H]4CC(=O)[C@@]2(C)[C@@]23O[C@@H]2C[C@H](c2ccoc2)[C@]3(C)[C@H]1OC(C)=O` [ZUMSIN], the PC50 turned out to be 2 microg/cm2 in the assay on Spodoptera frugiperda [1] and 1 microg/cm2 with Pectinophora gossypiella [2]. Besides, the PC95 in the assay with Pectinophora gossypiella [3] was 8 microg/cm2; in the assay with Spodoptera frugiperda [4], 16 microg/cm2.

The values are drawn from ChEMBL document CHEMBL3045030, “Insect antifeedants from tropical plants II: structure of zumsin” (2002).
